From ChEMBL document CHEMBL4834448, “Toward the assembly and characterization of an encoded library hit confirmation platform: Bead-Assisted Ligand Isolation Mass Spectrometry (BALI-MS)” (Bioorg Med Chem, 2021)

Target: Bromodomain-containing protein 4 (Homo sapiens, UniProt O60885)
Test: Displacement of Alexafluor 647-conjugated PFI-1 from N-terminal-His6-tagged human BRD4 BD1 domain (44 to 170 residues) incubated for 30 mins by fluorescence polarization assay

Structure (SMILES) | IC50 [µM]
CNCCN(C)c1ccc2nnc(C)n2n1 | > 30
Cc1nnc2ccc(N(C)CCC3CCNCC3)nn12 | 2.42
CN(C[C@H]1CC[C@H](N)CC1)c1ccc2nncn2n1 | 11.8
CCc1nnc2ccc(N(C)C[C@H]3CC[C@H](N)CC3)nn12 | 0.79
